Measured values taken from ChEMBL document CHEMBL1152811, “Docking model of drug binding to the human ether-à-go-go potassium channel guided by tandem dimer mutant patch-clamp data: a synergic approach” (J Med Chem, 2009).
pIC50: −log10 of the molar value. Calls of active or inactive are those of the source. The calls are words filed in the database; no cut-off is given here.

Legend:
Assay type in all cases: cell-based
[1] = Inhibition of human ERG td[wt:Y652A] mutant expressed in HEK293 cells by whole cell patch clamp method
[2] = Inhibition of human ERG td[wt:F656A] mutant expressed in HEK293 cells by whole cell patch clamp method
HEK293 [3] = assay: Binding affinity to human ERG td[wt:Y652A] mutant expressed in HEK293 cells assessed as blockade of membrane current at 0.2 uM by whole cell patch clamp method
HEK293 [4] = assay: Binding affinity to human ERG td[wt:F656A] mutant expressed in HEK293 cells assessed as blockade of membrane current at 0.05 uM by whole cell patch clamp method
[5] = biological target: Voltage-gated inwardly rectifying potassium channel KCNH2 (Homo sapiens, UniProt Q12809); assay: Inhibition of human ERG expressed in HEK293 cells by whole cell patch clamp method
Chain of Voltage-gated inwardly rectifying potassium channel KCNH2 (Q12809 whole entry): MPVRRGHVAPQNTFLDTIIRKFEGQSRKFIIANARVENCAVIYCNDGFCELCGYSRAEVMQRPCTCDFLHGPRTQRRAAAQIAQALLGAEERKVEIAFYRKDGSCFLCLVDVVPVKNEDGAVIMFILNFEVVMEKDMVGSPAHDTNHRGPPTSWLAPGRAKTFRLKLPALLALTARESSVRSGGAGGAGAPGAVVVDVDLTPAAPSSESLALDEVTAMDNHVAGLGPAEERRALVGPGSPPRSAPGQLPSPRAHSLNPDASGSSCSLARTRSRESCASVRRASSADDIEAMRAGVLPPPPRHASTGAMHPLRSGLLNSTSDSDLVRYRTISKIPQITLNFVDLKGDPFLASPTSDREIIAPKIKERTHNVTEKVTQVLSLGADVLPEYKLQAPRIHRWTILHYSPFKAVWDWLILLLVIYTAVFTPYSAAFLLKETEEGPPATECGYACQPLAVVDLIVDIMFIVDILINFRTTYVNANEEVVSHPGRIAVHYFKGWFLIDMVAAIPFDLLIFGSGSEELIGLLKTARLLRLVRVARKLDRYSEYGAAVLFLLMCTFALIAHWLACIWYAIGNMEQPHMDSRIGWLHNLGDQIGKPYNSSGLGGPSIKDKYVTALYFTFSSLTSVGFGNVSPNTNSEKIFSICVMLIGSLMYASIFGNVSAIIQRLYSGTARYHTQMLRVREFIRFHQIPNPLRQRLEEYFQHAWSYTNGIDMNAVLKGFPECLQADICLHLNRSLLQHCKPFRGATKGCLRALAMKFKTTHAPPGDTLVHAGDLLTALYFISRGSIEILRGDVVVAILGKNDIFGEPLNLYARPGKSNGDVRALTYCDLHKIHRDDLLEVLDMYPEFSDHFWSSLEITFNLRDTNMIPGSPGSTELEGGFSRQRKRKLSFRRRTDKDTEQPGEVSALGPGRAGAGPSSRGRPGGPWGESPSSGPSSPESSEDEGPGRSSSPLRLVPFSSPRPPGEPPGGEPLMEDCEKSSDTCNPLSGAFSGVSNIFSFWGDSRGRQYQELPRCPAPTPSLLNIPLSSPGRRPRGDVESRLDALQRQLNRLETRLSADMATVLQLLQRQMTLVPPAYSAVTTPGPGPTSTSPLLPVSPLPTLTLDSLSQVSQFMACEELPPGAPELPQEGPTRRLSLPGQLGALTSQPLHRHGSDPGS

| Structure (SMILES) | pIC50 [1] | pIC50 [2] | Activity (HEK293 [3]) | Activity (HEK293 [4]) | pIC50 [5] |
| --- | --- | --- | --- | --- | --- |
| Cc1cccc(CCN2CCC(C(=O)c3ccc(NS(C)(=O)=O)cc3)CC2)n1 | 6.60 | 7.70 |  |  |  |
| COc1cc(N)c(Cl)cc1C(=O)NC1CCN(CCCOc2ccc(F)cc2)CC1OC (centres undefined) [CISAPRIDE] | 6.74 | 8.00 | Active | Active |  |
| CCOc1cc(N)c(Cl)cc1C(=O)NCC1CN(Cc2ccc(F)cc2)CCO1 (centres undefined) [MOSAPRIDE] |  |  |  |  | 5.32 |
| CC(C)(C)c1ccc(C(O)CCCN2CCC(C(O)(c3ccccc3)c3ccccc3)CC2)cc1 (centres undefined) [TERFENADINE] | 7.52 | 7.52 |  |  |  |
